Laboratory results as given in ChEMBL document CHEMBL4610120, “New Broad-Spectrum Antibiotics Containing a Pyrrolobenzodiazepine Ring with Activity against Multidrug-Resistant Gram-Negative Bacteria” (J Med Chem, 2020).
≈ marks a conversion by molar mass, not a printed value. Calls of active or inactive are those of the source. No cut-off for these calls is given here.

Assays:
Klebsiella pneumoniae [1] = test: Antimicrobial activity against multidrug-resistant Klebsiella pneumoniae NCTC 13368 by microdilution broth method; type: functional
[2] = Selectivity ratio of cytotoxicity against human WI38 cells to MIC for Acinetobacter baumannii ATCC 17978; type: toxicity, cell-based
DNA [3] = test: Stabilization of 5'-FAM-TAT-ATA-TAG-ATA-TTT-TTT-TAT-CTA-TAT-ATA-3'-TAMRA DNA (unknown origin) assessed as reduction in change in melting temperature at 1:1 to 5:1 ligand to DNA ratio measured after 3 hrs by FRET-based assay relative to control; type: ADME, nucleic-acid assay
DNA [4] = test: Stabilization of 5'-FAM-TAT-AGA-TAT-AGA-TAT-TTT-ATA-TCT-ATA-TCT-ATA-3'-TAMRA DNA (unknown origin) assessed as reduction in change in melting temperature at 1:1 to 5:1 ligand to DNA ratio measured after 3 hrs by FRET-based assay relative to control; type: ADME, nucleic-acid assay
[5] = Selectivity ratio of cytotoxicity against human WI38 cells to MIC for vancomycin sensitive Enterococcus faecalis NCTC 775; type: toxicity, cell-based
[6] = Selectivity ratio of cytotoxicity against human WI38 cells to MIC for multidrug-resistant Klebsiella pneumoniae NCTC 13368; type: toxicity, cell-based
[7] = Selectivity ratio of cytotoxicity against human WI38 cells to MIC for multidrug-resistant Acinetobacter baumannii AYE; type: toxicity, cell-based
Acinetobacter baumannii [8] = test: Antimicrobial activity against multidrug-resistant Acinetobacter baumannii AYE by microdilution broth method; type: functional
Pseudomonas aeruginosa [9] = test: Antimicrobial activity against Pseudomonas aeruginosa PAO1 by microdilution broth method; type: functional
[10] = Cytotoxicity against human WI38 cells assessed as cell viability at 20 uM measured after 24 hrs by MTT assay relative to control; type: cell-based, WI-38; details: read-out: Activity
Klebsiella pneumoniae [11] = test: Antimicrobial activity against Klebsiella pneumoniae M6 by microdilution broth method; type: functional
Staphylococcus aureus [12] = test: Antibacterial activity against methicillin resistant Staphylococcus aureus NCTC 13616 by microdilution broth method; type: functional
[13] = Selectivity ratio of cytotoxicity against human WI38 cells to MIC for multidrug-resistant Pseudomonas aeruginosa NCTC 13437; type: toxicity, cell-based
Pseudomonas aeruginosa [14] = test: Antimicrobial activity against multidrug-resistant Pseudomonas aeruginosa NCTC 13437 by microdilution broth method; type: functional
Acinetobacter baumannii [15] = test: Antimicrobial activity against Acinetobacter baumannii ATCC 17978 by microdilution broth method; type: functional
[16] = Selectivity ratio of cytotoxicity against human WI38 cells to MIC for vancomycin resistant Enterococcus faecalis NCTC 12201; type: toxicity, cell-based
[17] = Selectivity ratio of cytotoxicity against human WI38 cells to MIC for methicillin resistant Staphylococcus aureus NCTC 13616; type: toxicity, cell-based
[18] = Selectivity ratio of cytotoxicity against human WI38 cells to MIC for methicillin resistant Staphylococcus aureus NCTC 13277; type: toxicity, cell-based
[19] = Selectivity ratio of cytotoxicity against human WI38 cells to MIC for Klebsiella pneumoniae M6; type: toxicity, cell-based
[20] = Selectivity ratio of cytotoxicity against human WI38 cells to MIC for methicillin sensitive Staphylococcus aureus NCTC 6571; type: toxicity, cell-based
Staphylococcus aureus [21] = test: Antibacterial activity against methicillin resistant Staphylococcus aureus NCTC 13277 by microdilution broth method; type: functional
Staphylococcus aureus [22] = test: Antibacterial activity against methicillin sensitive Staphylococcus aureus NCTC 6571 by microdilution broth method; type: functional
Enterococcus faecium = test: Antibacterial activity against vancomycin resistant Enterococcus faecium NCTC 12204 by microdilution broth method; type: functional
Enterococcus faecalis [23] = test: Antibacterial activity against vancomycin sensitive Enterococcus faecalis NCTC 775 by microdilution broth method; type: functional
[24] = Selectivity ratio of cytotoxicity against human WI38 cells to MIC for vancomycin resistant Enterococcus faecium NCTC 12204; type: toxicity, cell-based
[25] = Selectivity ratio of cytotoxicity against human WI38 cells to MIC for Pseudomonas aeruginosa PAO1; type: toxicity, cell-based
Enterococcus faecalis [26] = test: Antibacterial activity against vancomycin resistant Enterococcus faecalis NCTC 12201 by microdilution broth method; type: functional
[27] = biological target: T1, Protein RecA (Escherichia coli K-12) (UniProt P0A7G6); test: Induction of Escherichia coli K12 MG1655 recA promotor measured at 30 mins interval for 20 hrs by fluorescence assay relative to control; details: Escherichia coli str. K-12 substr. MG1655
T1 sequence (whole entry): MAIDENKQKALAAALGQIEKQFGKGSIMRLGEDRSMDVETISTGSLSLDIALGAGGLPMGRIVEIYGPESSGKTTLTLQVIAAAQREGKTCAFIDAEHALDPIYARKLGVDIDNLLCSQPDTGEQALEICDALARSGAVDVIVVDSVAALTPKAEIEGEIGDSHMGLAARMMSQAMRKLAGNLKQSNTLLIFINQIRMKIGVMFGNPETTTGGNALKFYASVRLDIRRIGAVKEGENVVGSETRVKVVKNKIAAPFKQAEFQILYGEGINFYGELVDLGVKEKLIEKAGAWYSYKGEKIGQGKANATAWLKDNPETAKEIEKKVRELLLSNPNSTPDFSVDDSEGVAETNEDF

[28] = biological target: T2, LexA repressor (Escherichia coli) (UniProt P0A7C2); test: Induction of Escherichia coli K12 MG1655 lexA promotor measured at 30 mins interval for 20 hrs by fluorescence assay relative to control; details: Escherichia coli str. K-12 substr. MG1655
T2 sequence (whole entry): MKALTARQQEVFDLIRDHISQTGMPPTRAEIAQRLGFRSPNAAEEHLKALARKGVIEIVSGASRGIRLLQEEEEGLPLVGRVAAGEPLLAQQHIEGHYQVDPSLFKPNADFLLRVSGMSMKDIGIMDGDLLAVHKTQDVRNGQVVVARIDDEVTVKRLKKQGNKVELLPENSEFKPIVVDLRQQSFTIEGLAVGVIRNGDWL

[29] = biological target: T3, Cell division inhibitor SulA (Escherichia coli K-12) (UniProt P0AFZ5); test: Induction of Escherichia coli K12 MG1655 sulA promotor measured at 30 mins interval for 20 hrs by fluorescence assay relative to control; details: Escherichia coli str. K-12 substr. MG1655
T3 sequence (whole entry): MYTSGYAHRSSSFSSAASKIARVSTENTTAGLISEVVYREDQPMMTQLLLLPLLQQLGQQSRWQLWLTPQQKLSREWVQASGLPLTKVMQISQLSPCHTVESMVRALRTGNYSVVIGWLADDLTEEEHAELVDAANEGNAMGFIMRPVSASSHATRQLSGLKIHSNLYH

[30] = biological target: T4, DNA repair protein RecN (Escherichia coli) (UniProt P05824); test: Induction of Escherichia coli K12 MG1655 recN promotor measured at 30 mins interval for 20 hrs by fluorescence assay relative to control; details: Escherichia coli str. K-12 substr. MG1655
T4 sequence (whole entry): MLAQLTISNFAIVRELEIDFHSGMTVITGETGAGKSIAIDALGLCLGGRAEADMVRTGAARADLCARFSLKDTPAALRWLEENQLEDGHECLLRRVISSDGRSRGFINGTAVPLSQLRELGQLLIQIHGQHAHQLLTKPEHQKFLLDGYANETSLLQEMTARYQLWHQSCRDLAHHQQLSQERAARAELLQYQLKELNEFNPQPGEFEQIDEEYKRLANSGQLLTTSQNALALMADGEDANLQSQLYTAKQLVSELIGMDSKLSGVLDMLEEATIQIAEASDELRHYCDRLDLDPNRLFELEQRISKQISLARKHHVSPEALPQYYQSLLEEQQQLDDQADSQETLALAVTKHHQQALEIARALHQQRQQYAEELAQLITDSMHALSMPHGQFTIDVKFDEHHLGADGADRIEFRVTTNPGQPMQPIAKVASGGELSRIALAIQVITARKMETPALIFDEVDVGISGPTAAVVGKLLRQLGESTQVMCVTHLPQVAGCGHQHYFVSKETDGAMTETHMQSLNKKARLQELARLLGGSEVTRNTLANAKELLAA

COc1cc2c(cc1OCCCC(=O)Nc1cc(C(=O)Nc3ccc(-c4cc(C(=O)N5CCSCC5)n(C)c4)cc3)n(C)c1)N=C[C@@H]1CCCN1C2=O
MIC (Klebsiella pneumoniae [1]): > 32 µg/mL
selectivity ratio [2]: 10
fold change (FC) (DNA [3]): 3 to 4
fold change (FC) (DNA [4]): 3 to 4
selectivity ratio [5]: 100
selectivity ratio [6]: 10
selectivity ratio [7]: 10
MIC (Acinetobacter baumannii [8]): 2 µg/mL (≈ 2.71 µM)
MIC (Pseudomonas aeruginosa [9]): > 32 µg/mL
viability at 24 h, 20 µM [10]: > 85%
MIC (Klebsiella pneumoniae [11]): 4 µg/mL (≈ 5.42 µM)
MIC (Staphylococcus aureus [12]): ≤ 0.03 µg/mL
selectivity ratio [13]: 10
MIC (Pseudomonas aeruginosa [14]): > 32 µg/mL
MIC (Acinetobacter baumannii [15]): 2 µg/mL (≈ 2.71 µM)
selectivity ratio [16]: 100
selectivity ratio [17]: 100
selectivity ratio [18]: 100
selectivity ratio [19]: 10
selectivity ratio [20]: 100
MIC (Staphylococcus aureus [21]): 0.06 µg/mL (≈ 0.0813 µM)
MIC (Staphylococcus aureus [22]): ≤ 0.03 µg/mL
MIC (Enterococcus faecium): ≤ 0.03 µg/mL
MIC (Enterococcus faecalis [23]): ≤ 0.03 µg/mL
selectivity ratio [24]: 100
selectivity ratio [25]: 10
MIC (Enterococcus faecalis [26]): ≤ 0.03 µg/mL

COc1cc2c(cc1OCCCC(=O)Nc1cc(C(=O)Nc3ccc(-c4cc(C(=O)N(C)C)n(C)c4)cc3)n(C)c1)N=C[C@@H]1CCCN1C2=O
MIC (Klebsiella pneumoniae [1]): 8 µg/mL (≈ 11.8 µM)
selectivity ratio [2]: 10
fold change (FC) (DNA [3]): 3 to 4
fold change (FC) (DNA [4]): 3 to 4
selectivity ratio [5]: 100
selectivity ratio [6]: 10
selectivity ratio [7]: 10
MIC (Acinetobacter baumannii [8]): 4 µg/mL (≈ 5.88 µM)
MIC (Pseudomonas aeruginosa [9]): 128 µg/mL (≈ 188 µM)
viability at 24 h, 20 µM [10]: > 85%
MIC (Klebsiella pneumoniae [11]): 2 µg/mL (≈ 2.94 µM)
MIC (Staphylococcus aureus [12]): ≤ 0.125 µg/mL
selectivity ratio [13]: 10
MIC (Pseudomonas aeruginosa [14]): > 128 µg/mL
MIC (Acinetobacter baumannii [15]): 4 µg/mL (≈ 5.88 µM)
selectivity ratio [16]: 100
selectivity ratio [17]: 100
selectivity ratio [18]: 100
selectivity ratio [19]: 10
selectivity ratio [20]: 100
MIC (Staphylococcus aureus [21]): ≤ 0.125 µg/mL
MIC (Staphylococcus aureus [22]): ≤ 0.125 µg/mL
MIC (Enterococcus faecium): ≤ 0.125 µg/mL
MIC (Enterococcus faecalis [23]): ≤ 0.125 µg/mL
selectivity ratio [24]: 100
selectivity ratio [25]: 10
MIC (Enterococcus faecalis [26]): ≤ 0.125 µg/mL

CC1(C)S[C@@H]2[C@H](NC(=O)[C@H](N)c3ccccc3)C(=O)N2[C@H]1C(=O)O
Activity [27]: inactive
Activity [28]: inactive
Activity [29]: inactive
Activity [30]: inactive

COc1c(N2C[C@@H]3CCCN[C@@H]3C2)c(F)cc2c(=O)c(C(=O)O)cn(C3CC3)c12
fold change (FC) [27]: 20 to 35
fold change (FC) [28]: 5 to 13
fold change (FC) [29]: 17 to 41
fold change (FC) [30]: 14 to 32

CO[C@H]1/C=C/O[C@@]2(C)Oc3c(C)c(O)c4c(O)c(c(/C=N/N5CCN(C)CC5)c(O)c4c3C2=O)NC(=O)/C(C)=C\C=C\[C@H](C)[C@H](O)[C@@H](C)[C@@H](O)[C@@H](C)[C@H](OC(C)=O)[C@@H]1C
Activity [27]: inactive
Activity [28]: inactive
Activity [29]: inactive
Activity [30]: inactive
